According to PubChem BioAssay (NCI):
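Values below derive from 48-hour exposures of cells grown in 96-well plates, with endpoints linearly interpolated between the two concentrations bracketing the appropriate inhibition level. GI50: concentration for 50% inhibition of growth. TGI is the concentration that stops growth completely.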

Key:
Test in all cases: growth of human tumour cells (NCI), 48 h
SW-620 colon = tested on: SW-620 colon
CAKI-1 renal = tested on: CAKI-1 renal
NCI-H460 lung = tested on: NCI-H460 lung
UO-31 renal = tested on: UO-31 renal
CCRF-CEM leukemia = tested on: CCRF-CEM leukemia
DU-145 prostate = tested on: DU-145 prostate
NCI-H522 lung = tested on: NCI-H522 lung
M14 melanoma = tested on: M14 melanoma
SK-MEL-2 melanoma = tested on: SK-MEL-2 melanoma
MDA-N = tested on: MDA-N
786-0 renal = tested on: 786-0 renal
SR leukemia = tested on: SR leukemia
SF-295 CNS = tested on: SF-295 CNS
SK-MEL-5 melanoma = tested on: SK-MEL-5 melanoma
OVCAR-8 ovarian = tested on: OVCAR-8 ovarian
SF-539 CNS = tested on: SF-539 CNS
PC-3 prostate = tested on: PC-3 prostate
U251 CNS = tested on: U251 CNS
MALME-3M melanoma = tested on: MALME-3M melanoma
SK-OV-3 ovarian = tested on: SK-OV-3 ovarian
HL-60(TB) leukemia = tested on: HL-60(TB) leukemia
MDA-MB-231 breast = tested on: MDA-MB-231 breast
NCI/ADR-RES ovarian = tested on: NCI/ADR-RES ovarian
KM12 colon = tested on: KM12 colon
RXF 393 renal = tested on: RXF 393 renal
NCI-H23 lung = tested on: NCI-H23 lung
BT-549 breast = tested on: BT-549 breast
MOLT-4 leukemia = tested on: MOLT-4 leukemia
HCT-116 colon = tested on: HCT-116 colon
OVCAR-4 ovarian = tested on: OVCAR-4 ovarian
IGROV1 ovarian = tested on: IGROV1 ovarian
SF-268 CNS = tested on: SF-268 CNS
COLO 205 colon = tested on: COLO 205 colon
SK-MEL-28 melanoma = tested on: SK-MEL-28 melanoma
UACC-62 melanoma = tested on: UACC-62 melanoma
SNB-75 CNS = tested on: SNB-75 CNS
A498 renal = tested on: A498 renal
A549 NSCLC = tested on: A549 NSCLC
LOX IMVI melanoma = tested on: LOX IMVI melanoma
RPMI-8226 leukemia = tested on: RPMI-8226 leukemia
MCF7 breast = tested on: MCF7 breast
OVCAR-3 ovarian = tested on: OVCAR-3 ovarian
HT29 colon = tested on: HT29 colon
SNB-19 CNS = tested on: SNB-19 CNS
OVCAR-5 ovarian = tested on: OVCAR-5 ovarian
HOP-62 NSCLC = tested on: HOP-62 NSCLC
HS 578T breast = tested on: HS 578T breast
K-562 leukemia = tested on: K-562 leukemia
MDA-MB-435 = tested on: MDA-MB-435
EKVX NSCLC = tested on: EKVX NSCLC
UACC-257 melanoma = tested on: UACC-257 melanoma
HCT-15 colon = tested on: HCT-15 colon
TK-10 renal = tested on: TK-10 renal
ACHN renal = tested on: ACHN renal
SN12C renal = tested on: SN12C renal

SMILES: CCC(C)C1=NC(C(=O)N/C=C\c2c[nH]c3cc(Br)c(Br)cc23)(C(C)C)NC1=O (stereo not given)
- GI50 (SW-620 colon): 16.9 µM
- TGI (SW-620 colon): 38.2 µM
- GI50 (CAKI-1 renal): 12.2 µM
- TGI (CAKI-1 renal): 26.8 µM
- GI50 (NCI-H460 lung): 12.9 µM
- TGI (NCI-H460 lung): 26.7 µM
- GI50 (UO-31 renal): 12.2 µM
- TGI (UO-31 renal): 24.6 µM
- GI50 (CCRF-CEM leukemia): 18.2 µM
- TGI (CCRF-CEM leukemia): > 100 µM
- GI50 (DU-145 prostate): 14.3 µM
- TGI (DU-145 prostate): 27.4 µM
- GI50 (NCI-H522 lung): 13.5 µM
- TGI (NCI-H522 lung): 26.4 µM
- GI50 (M14 melanoma): 14 µM
- TGI (M14 melanoma): 27.3 µM
- GI50 (SK-MEL-2 melanoma): 12.3 µM
- TGI (SK-MEL-2 melanoma): 26.7 µM
- GI50 (MDA-N): 15.4 µM
- TGI (MDA-N): 30 µM
- GI50 (786-0 renal): 20.2 µM
- TGI (786-0 renal): 42.9 µM
- GI50 (SR leukemia): 17 µM
- TGI (SR leukemia): 37.1 µM
- GI50 (SF-295 CNS): 15.9 µM
- TGI (SF-295 CNS): 30.1 µM
- GI50 (SK-MEL-5 melanoma): 11.7 µM
- TGI (SK-MEL-5 melanoma): 25.1 µM
- GI50 (OVCAR-8 ovarian): 32.3 µM
- TGI (OVCAR-8 ovarian): > 100 µM
- GI50 (SF-539 CNS): 21 µM
- TGI (SF-539 CNS): 42.5 µM
- GI50 (PC-3 prostate): 10.1 µM
- TGI (PC-3 prostate): 25.1 µM
- GI50 (U251 CNS): 14.1 µM
- TGI (U251 CNS): 29 µM
- GI50 (MALME-3M melanoma): 20.6 µM
- TGI (MALME-3M melanoma): 39.3 µM
- GI50 (SK-OV-3 ovarian): 18.6 µM
- TGI (SK-OV-3 ovarian): 34.9 µM
- GI50 (HL-60(TB) leukemia): 33.7 µM
- TGI (HL-60(TB) leukemia): 59.6 µM
- GI50 (MDA-MB-231 breast): 17.4 µM
- TGI (MDA-MB-231 breast): 39.3 µM
- GI50 (NCI/ADR-RES ovarian): 27.3 µM
- TGI (NCI/ADR-RES ovarian): > 100 µM
- GI50 (KM12 colon): 18.5 µM
- TGI (KM12 colon): 44.3 µM
- GI50 (RXF 393 renal): 15.4 µM
- TGI (RXF 393 renal): 29.2 µM
- GI50 (NCI-H23 lung): 16 µM
- TGI (NCI-H23 lung): 29.4 µM
- GI50 (BT-549 breast): 23.7 µM
- TGI (BT-549 breast): 71.2 µM
- GI50 (MOLT-4 leukemia): 15.2 µM
- TGI (MOLT-4 leukemia): 30.3 µM
- GI50 (HCT-116 colon): 15.6 µM
- TGI (HCT-116 colon): 31.3 µM
- GI50 (OVCAR-4 ovarian): 11.1 µM
- TGI (OVCAR-4 ovarian): 32.3 µM
- GI50 (IGROV1 ovarian): 6.36 µM
- TGI (IGROV1 ovarian): 19.7 µM
- GI50 (SF-268 CNS): 15 µM
- TGI (SF-268 CNS): 30.1 µM
- GI50 (COLO 205 colon): 14 µM
- TGI (COLO 205 colon): 29.3 µM
- GI50 (SK-MEL-28 melanoma): 15 µM
- TGI (SK-MEL-28 melanoma): 32.7 µM
- GI50 (UACC-62 melanoma): 12 µM
- TGI (UACC-62 melanoma): 26.9 µM
- GI50 (SNB-75 CNS): 3.37 µM
- TGI (SNB-75 CNS): 10.2 µM
- GI50 (A498 renal): 17.8 µM
- TGI (A498 renal): 35 µM
- GI50 (A549 NSCLC): 11.7 µM
- TGI (A549 NSCLC): 26.5 µM
- GI50 (LOX IMVI melanoma): 16.6 µM
- TGI (LOX IMVI melanoma): 31.9 µM
- GI50 (RPMI-8226 leukemia): 8.75 µM
- TGI (RPMI-8226 leukemia): 39 µM
- GI50 (MCF7 breast): 13.6 µM
- TGI (MCF7 breast): 29.6 µM
- GI50 (OVCAR-3 ovarian): 5.38 µM
- TGI (OVCAR-3 ovarian): 18.4 µM
- GI50 (HT29 colon): 18.3 µM
- TGI (HT29 colon): 44.4 µM
- GI50 (SNB-19 CNS): 18.5 µM
- TGI (SNB-19 CNS): 35 µM
- GI50 (OVCAR-5 ovarian): 15.4 µM
- TGI (OVCAR-5 ovarian): 29 µM
- GI50 (HOP-62 NSCLC): 19.8 µM
- TGI (HOP-62 NSCLC): 36.3 µM
- GI50 (HS 578T breast): 21.4 µM
- TGI (HS 578T breast): 68.4 µM
- GI50 (K-562 leukemia): 16.5 µM
- TGI (K-562 leukemia): 35.8 µM
- GI50 (MDA-MB-435): 12 µM
- TGI (MDA-MB-435): 24.4 µM
- GI50 (EKVX NSCLC): 5.98 µM
- TGI (EKVX NSCLC): 20 µM
- GI50 (UACC-257 melanoma): 15.3 µM
- TGI (UACC-257 melanoma): 28.6 µM
- GI50 (HCT-15 colon): 28.1 µM
- TGI (HCT-15 colon): 79.6 µM
- GI50 (TK-10 renal): 18.5 µM
- TGI (TK-10 renal): 35.7 µM
- GI50 (ACHN renal): 18.3 µM
- TGI (ACHN renal): 39.6 µM
- GI50 (SN12C renal): 18.3 µM
- TGI (SN12C renal): 37.5 µM
